# Source: US7468384B2, “Microbicidal composition” (Rohm and Haas Company, priority 2004, dated 2008)
# Where two headings read alike, the source gives them in different places.
# Tests used:
# Assay type in all cases: cell-based
# [1] = tested on: Candida albicans (C. albicans—ATCC 10231); experiment: Synergy test, microtiter plate high resolution MIC assay, yeast; settings: C. albicans 10231, PDB; for MIC: Candida albicans, ATCC10231; for Qb: alone or mixed with BIT; for MIC of component acting alone (QA / QB): 48 hours
# Excerpt: (§1) One measure of synergism is the industrially accepted method described by Kull, F. C.; Eisman, P. C.; Sylwestrowicz, H. D. and Mayer, R. L., in Applied Microbiology 9:538-541 (1961), using the ratio determined by the formula: Qa/QA+Qb/QB=Synergy Index (“SI”) wherein: • QA=concentration of compound A (first component) in ppm, acting alone, which produced an end point (MIC of Compound A). • Qa=concentration of compound A in ppm, in the mixture, which produced an end point. • QB=concentration of compound B (second component) in ppm, acting alone, which produced an end point (MIC of Compound B). • Qb=concentration of compound B in ppm, in the mixture, which produced an end point.
# (§2) When the sum of Qa/QA and Qb/QB is greater than one, antagonism is indicated. […] The lower the SI, the greater the synergy shown by that particular mixture. The minimum inhibitory concentration (MIC) of a microbicide is the lowest concentration tested under a specific set of conditions that prevents the growth of added microorganisms.
# (§3) Synergy tests were conducted using standard microtiter plate assays with media designed for optimal growth of the test microorganism. Soybean Casein Digest Broth (Tryptic Soy Broth, TSB medium) or minimal salt medium supplemented with 0.2% glucose and 0.1% yeast extract (M9GY medium) was used for testing bacteria; Potato Dextrose Broth (PDB medium) was used for testing yeast and mold. In this method, a wide range of combinations of microbicides was tested by conducting high resolution MIC assays in the presence of various concentrations of MI. High resolution MICs were determined by adding varying amounts of microbicide to one column of a microtitre plate and doing subsequent ten-fold dilutions using an automated liquid handling system to obtain a series of endpoints ranging from 2 ppm to 10,000 ppm active ingredient.
# (§4) For MI combinations, the synergy of the combinations of the present invention was determined against two bacteria, Escherichia coli (E. coli—ATCC #8739) or Pseudomonas aeruginosa (P. aeruginosa—ATCC #15442), a yeast, Candida albicans (C. albicans—ATCC 10231), and a mold, Aspergillus niger (A. niger—ATCC 16404). The bacteria were used at a concentration of about 5×10^6 bacteria per mL and the yeast and mold at 5×10^5 fungi per mL. These microorganisms are representative of natural contaminants in many consumer and industrial applications. […] (bacteria).
# (§5) For BIT combinations, the synergy of the combinations of the present invention was determined against a bacterium, Pseudomonas aeruginosa (P. aeruginosa—ATCC #15442), a yeast, Candida albicans (C. albicans—ATCC 10231), and a mold, Aspergillus niger (A. niger—ATCC 16404). The bacteria were used at a concentration of about 5×10^6 bacteria per mL and the yeast and mold at 5×10^5 fungi per mL. These microorganisms are representative of natural contaminants in many consumer and industrial applications. […] (yeast and mold) or 30° C. (bacteria).
# [2] = tested on: Pseudomonas aeruginosa (P. aeruginosa—ATCC #15442); experiment: Synergy test, microtiter plate high resolution MIC assay, bacterium; set-up: key to SI (calculated synergy index) / SI (synergy index): SI = Qa/QA + Qb/QB (mixture vs. alone end-point concentrations); settings: for SI (calculated synergy index) / Qb: end-point activity (MIC) of second component in the mixture (alone, QB, where Qa = 0): Table 5; for Qb: end-point activity (MIC) of second component in the mixture (alone, QB, where Qa = 0): B = Linoleamidopropyl PG-dimonium chloride phosphate; for MIC: Pseudomonas aeruginosa, ATCC15442; for Qb: alone or mixed with BIT
# Excerpt: as §1, §2, §3, §4, §5
# [3] = tested on: Aspergillus niger (A. niger—ATCC 16404); experiment: Synergy test, microtiter plate high resolution MIC assay, mold; set-up: key to SI (calculated synergy index) / SI (synergy index): SI = Qa/QA + Qb/QB (mixture vs. alone end-point concentrations); settings: A. niger 16404, PDB; for MIC: Aspergillus niger, ATCC16404, 72 h
# Excerpt: as §1, §2, §3, §4, §5
# S. aureus 6538 = experiment: Synergy test, microtiter plate high resolution MIC assay, bacterium; settings: S. aureus 6538, TSB
# Excerpt: as §1, §2, §3
# [4] = tested on: Escherichia coli (E. coli—ATCC #8739); experiment: as above; settings: E. coli 8739, M9GY; for Qb: alone or mixed with BIT
# Excerpt: as §1, §2
# as §3, with “In this method, a wide range of combinations of microbicides was tested by conducting high resolution MIC assays in the presence of various concentrations of MI.” left out
# as §4
# [5] = P. aeruginosa 15442, M9GY, 48 hours
# [6] = P. aeruginosa 15442, TSB, 48 hours
# [7] = caprylyl glycol concentration giving end point (MIC), 24 hours
# [8] = synergy index BIT + caprylyl glycol, 24 hours
# [9] = glutaraldehyde concentration giving end point (MIC), 24 hours
# [10] = synergy index BIT + glutaraldehyde, 24 hours
molecule,measurement,setting,value
Linoleamidopropyl PG-dimonium chloride phosphate,SI (calculated synergy index),"[1]; Table 5, 24 hours",1.00
same,"Qb: end-point activity (MIC) of second component in the mixture (alone, QB, where Qa = 0)","[1]; Table 5, 24 hours, B = Linoleamidopropyl PG-dimonium chloride phosphate",8000 ppm
same,SI (calculated synergy index),[2]; [5],1.00
same,"Qb: end-point activity (MIC) of second component in the mixture (alone, QB, where Qa = 0)",[2]; [5],10000 ppm
same,SI (calculated synergy index),[2]; [6],1.00
same,"Qb: end-point activity (MIC) of second component in the mixture (alone, QB, where Qa = 0)",[2]; [6],10000 ppm
same,"Qb (second component at end point, MIC)","[2]; Table 21, Linoleamidopropyl PG-dimonium chloride phosphate with BIT, P. aeruginosa 15442, M9GY, 48 hours, alone where Qa = 0",10000 ppm
same,SI (synergy index),"[2]; Table 21, P. aeruginosa 15442, M9GY, 48 hours",1.00
same,SI (calculated synergy index),"[3]; Table 5, 7 days",1.00
same,"Qb: end-point activity (MIC) of second component in the mixture (alone, QB, where Qa = 0)","[3]; Table 5, 7 days, B = Linoleamidopropyl PG-dimonium chloride phosphate",6000 ppm
same,SI (synergy index),"[3]; Table 21, 4 days",1.00
same,"Qb (second component at end point, MIC)","[3]; Table 21, Linoleamidopropyl PG-dimonium chloride phosphate with BIT, 4 days, alone where Qa = 0",3000 ppm
same,SI (calculated synergy index),"S. aureus 6538; Table 5, 48 hours",1.00
same,"Qb: end-point activity (MIC) of second component in the mixture (alone, QB, where Qa = 0)","S. aureus 6538; Table 5, 48 hours, B = Linoleamidopropyl PG-dimonium chloride phosphate",40 ppm
"Cl/C=C\C[N+]12CN3CN(CN(C3)C1)C2.[Cl-] [cis-1-(3-chloroallyl)-3,5,7-triaza-1-azoniaadamantane chloride]",MIC,"[1]; Table 24, Cis-1-(3-chloroallyl)-3,5,7-triaza-1-azoniaadamantane chloride with BIT, 24 hours, alone where Qa = 0, read-out: Qb (second component at end point, MIC)",800 µg/mL
same,SI (synergy index),"[1]; Table 24, 24 hours",1.00
same,MIC,"[2]; Table 24, Cis-1-(3-chloroallyl)-3,5,7-triaza-1-azoniaadamantane chloride with BIT, P. aeruginosa 15442, M9GY, 24 hours, alone where Qa = 0, read-out: Qb (second component at end point, MIC)",400 µg/mL
same,SI (synergy index),"[2]; Table 24, P. aeruginosa 15442, M9GY, 24 hours",1.00
same,MIC,"[3]; Table 24, Cis-1-(3-chloroallyl)-3,5,7-triaza-1-azoniaadamantane chloride with BIT, 3 days, alone where Qa = 0, read-out: Qb (second component at end point, MIC)",800 µg/mL
same,SI (synergy index),"[3]; Table 24, 3 days",1.00
same,MIC,"[4]; Escherichia coli, ATCC8739, Table 24, Cis-1-(3-chloroallyl)-3,5,7-triaza-1-azoniaadamantane chloride with BIT, 48 hours, alone where Qa = 0, read-out: Qb (second component at end point, MIC)",400 µg/mL
same,SI (synergy index),"[4]; Table 24, 48 hours",1.00
imidazolidinyl urea [Imidalozidinyl urea],Qb,"[1]; Imidalozidinyl urea concentration giving end point (MIC), 24 hours",10000 ppm
same,SI,"[1]; synergy index BIT + Imidalozidinyl urea, 24 hours",1.00
same,Qb,"[2]; Imidalozidinyl urea concentration giving end point (MIC), P. aeruginosa 15442, M9GY, 48 hours",400 ppm
same,SI,"[2]; synergy index BIT + Imidalozidinyl urea, P. aeruginosa 15442, M9GY, 48 hours",1.00
same,Qb,"[3]; Imidalozidinyl urea concentration giving end point (MIC), alone or mixed with BIT, 3 days",8000 ppm
same,SI,"[3]; synergy index BIT + Imidalozidinyl urea, 3 days",1.00
same,Qb,"[4]; Imidalozidinyl urea concentration giving end point (MIC), 48 hours",400 ppm
same,SI,"[4]; synergy index BIT + Imidalozidinyl urea, 48 hours",1.00
CCCCC(CC)CN1CN(CC(CC)CCCC)CC(C)(N)C1 (centres unmarked) [Hexetidine],MIC,"[1]; 72 hours, read-out: MIC of component acting alone (QA / QB)",2000 µg/mL
same,MIC,"[2]; P. aeruginosa 15442, TSB, 24 hours, read-out: MIC of component acting alone (QA / QB)",10000 µg/mL
same,MIC,"S. aureus 6538; Staphylococcus aureus, 48 hours, read-out: MIC of component acting alone (QA / QB)",4 µg/mL
N=C(N)c1ccc(OCCCCCCOc2ccc(C(=N)N)cc2)cc1.O=S(=O)(O)CCO.O=S(=O)(O)CCO [Hexamidine diisethionate],MIC of component acting alone (QA / QB),[1],2000 ppm
same,MIC of component acting alone (QA / QB),"[2]; P. aeruginosa 15442, TSB, 72 hours",2000 ppm
same,MIC of component acting alone (QA / QB),S. aureus 6538; 72 hours,4000 ppm
CCCCCCC(O)CO (centres unmarked) [Caprylyl glycol],MIC of component acting alone (QA / QB),[1],2000 ppm
same,Qb,[1]; [7],2000 ppm
same,SI,[1]; [8],1.00
same,MIC of component acting alone (QA / QB),[2]; [5],3000 ppm
same,Qb,"[2]; caprylyl glycol concentration giving end point (MIC), P. aeruginosa 15442, M9GY, 24 hours",3000 ppm
same,SI,"[2]; synergy index BIT + caprylyl glycol, P. aeruginosa 15442, M9GY, 24 hours",1.00
same,MIC of component acting alone (QA / QB),[3]; 1 week,3000 ppm
same,Qb,"[3]; caprylyl glycol concentration giving end point (MIC), alone or mixed with BIT, 1 week",2000 ppm
same,SI,"[3]; synergy index BIT + caprylyl glycol, 1 week",1.00
same,MIC of component acting alone (QA / QB),[4]; 24 hours,2000 ppm
same,Qb,[4]; [7],2000 ppm
same,SI,[4]; [8],1.00
O=CCCCC=O [glutaraldehyde],Qb,[1]; [9],30 ppm
same,SI,[1]; [10],1.00
same,Qb,"[2]; glutaraldehyde concentration giving end point (MIC), P. aeruginosa 15442, M9GY, 48 hours",60 ppm
same,SI,"[2]; synergy index BIT + glutaraldehyde, P. aeruginosa 15442, M9GY, 48 hours",1.00
same,MIC,"[3]; glutaraldehyde concentration giving end point (MIC), alone or mixed with BIT, 3 days, read-out: Qb",400 µg/mL
same,SI,"[3]; synergy index BIT + glutaraldehyde, 3 days",1.00
same,Qb,[4]; [9],50 ppm
same,SI,[4]; [10],1.00
